Counter-ions that a name gives are not always drawn.
Columns and labels:
[1] = target: rat adipose tissue homogenate SSAO/VAP-1 (Rattus norvegicus (Rat), UniProt O08590); experiment: Determination of inhibitory activity of rat adipose tissue homogenate SSAO/VAP-1; type: biochemical, Sprague Dawley rats; settings: rat abdominal adipose tissue homogenate, pargyline pretreated, 37° C.
Procedure: 2. Determination of Inhibitory Activity of Rat Adipose Tissue Homogenate SSAO/VAP-1
Test purpose: The following methods can be used to determine the inhibitory activity of the compounds of the invention for rat adipose tissue homogenate SSAO/VAP-1.
The abdominal fat removed from Sprague Dawley rats was a tissue rich in SSAO/VAP-1. 5 mL Of HES buffer per gram of rat abdominal adipose tissue (20 mM Sodium N-piperazine-N-ethanesulfonate, 1 mm EDTA, 250 mM sucrose, 1×PMSF and 100 mM (3-glycerol phosphate disodium salt hydrate, pH 7.4) was added for homogenizing. The fat tissue was homogenized for 3 min by using Bertin precellys 24 multi-functional sample homogenizer of Bertin technologies, and the fat tissue homogenate was centrifuged for 10 min at 4° C. and 20000 g, and the middle transparent supernatant was taken. The supernatant was incubated with 0.5 mm Pargyline hydrochloride dissolved in HES buffer at 37° C. for 30 min. After 30 min incubation, 25 μl of fat tissue supernatant was added to the standard 96 well plate. The test compound was dissolved in DMSO and diluted to 6 concentrations. 25 μL Of the test compounds with different concentrations was added to each well containing the supernatant of fat tissue and incubated at 37° C. for 30 min. After incubation, 50 μL of the reaction mixture containing 80 μM benzylamine hydrochloride (containing 100 μM Amplex® red and 0.2 U/mL HRP, Amplex® Red Hydrogen peroxideperoxidase assay kit) was added to the corresponding wells and incubated at 37° C. for 30 min. After 30 min, the relative fluorescence unit (RFU) was read by using PHERAstar FSX enzyme marker of BMG LABTECH at 540 nm excitation and 580 nm emission. The curve was drawn by using the graph pad prism 5 software, and the IC50 value was calculated. The results were shown in table 2, wherein the compound listed in table 2 is the compound in the preparation examples with the same compound number: Table 2: inhibitory activity of the compound of examples of the invention for SSAO/VAP-1 of fat tissue homogenate

[2] = target: Human recombinant SSAO/VAP-1 (Homo sapiens (Human), UniProt Q16853); experiment: Determination of inhibitory activity of human recombinant SSAO/VAP-1 (Amplex Red, benzylamine); type: biochemical; settings: human recombinant SSAO/VAP-1, 30 min preincubation at room temperature; read-out: SSAO/VAP-1(Human recombinant protein) IC50/nM
Sequence of Human recombinant SSAO/VAP-1 (Q16853 whole entry): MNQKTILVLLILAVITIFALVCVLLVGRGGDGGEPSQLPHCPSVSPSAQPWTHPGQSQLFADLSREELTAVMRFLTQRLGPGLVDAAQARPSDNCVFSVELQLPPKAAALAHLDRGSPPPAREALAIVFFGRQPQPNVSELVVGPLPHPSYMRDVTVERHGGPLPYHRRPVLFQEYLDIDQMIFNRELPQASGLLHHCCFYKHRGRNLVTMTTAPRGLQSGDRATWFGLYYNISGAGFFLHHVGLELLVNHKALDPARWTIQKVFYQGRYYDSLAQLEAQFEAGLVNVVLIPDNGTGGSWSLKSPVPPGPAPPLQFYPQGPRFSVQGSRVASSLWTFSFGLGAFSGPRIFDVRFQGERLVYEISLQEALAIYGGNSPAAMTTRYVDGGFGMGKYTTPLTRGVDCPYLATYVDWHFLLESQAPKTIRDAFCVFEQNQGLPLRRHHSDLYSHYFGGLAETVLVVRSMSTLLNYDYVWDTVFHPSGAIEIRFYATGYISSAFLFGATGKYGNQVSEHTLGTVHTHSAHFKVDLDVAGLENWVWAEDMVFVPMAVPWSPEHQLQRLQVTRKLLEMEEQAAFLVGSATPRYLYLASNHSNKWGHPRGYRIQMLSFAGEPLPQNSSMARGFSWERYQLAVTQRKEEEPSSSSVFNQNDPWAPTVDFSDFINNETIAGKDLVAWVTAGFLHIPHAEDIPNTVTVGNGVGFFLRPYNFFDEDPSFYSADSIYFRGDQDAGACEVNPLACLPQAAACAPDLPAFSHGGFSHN
Procedure: 1. Determination of Inhibitory Activity of Human Recombinant SSAO/VAP-1
Test purpose: The following methods can be used to determine the inhibitory activity of the compounds described in the examples of the invention for human recombinant SSAO/VAP-1.
Human recombinant SSAO/VAP-1 (VAP-1, human) purchased from Sigma, Cat. No. SRP6241;
The test compound was dissolved in DMSO and diluted to 10 concentrations in 4-fold serial dilution. In 384 well plates, 25 μL of human recombinant SSAO/VAP-1 (1.6 μg/ml) was added to each well. 100 nL of test compounds with different concentrations were added to each well containing human recombinant SSAO/VAP-1 and incubated at room temperature for 30 min. After 30 min incubation, 25 μl of Amplex® red monoamine oxidase assay kit (containing a reaction mixture of 200 μm Amplex Red reagent, 1 U/ml HRP and 1 mm benzylamine hydrochloride) was added to the corresponding well, and incubated at room temperature and dark for 60 min. After 60 min, the relative fluorescence unit (RFU) was read by using PerkinElmer's Envision at 530-560 nm excitation and 590 nm emission. The curve was drawn by using the graph pad prism 5 software, and the IC50 value was calculated. The results were shown in table 1, wherein the compound listed in table 1 is the compound in the preparation examples with the same compound number: […]

Sequence of rat adipose tissue homogenate SSAO/VAP-1 (O08590 whole entry): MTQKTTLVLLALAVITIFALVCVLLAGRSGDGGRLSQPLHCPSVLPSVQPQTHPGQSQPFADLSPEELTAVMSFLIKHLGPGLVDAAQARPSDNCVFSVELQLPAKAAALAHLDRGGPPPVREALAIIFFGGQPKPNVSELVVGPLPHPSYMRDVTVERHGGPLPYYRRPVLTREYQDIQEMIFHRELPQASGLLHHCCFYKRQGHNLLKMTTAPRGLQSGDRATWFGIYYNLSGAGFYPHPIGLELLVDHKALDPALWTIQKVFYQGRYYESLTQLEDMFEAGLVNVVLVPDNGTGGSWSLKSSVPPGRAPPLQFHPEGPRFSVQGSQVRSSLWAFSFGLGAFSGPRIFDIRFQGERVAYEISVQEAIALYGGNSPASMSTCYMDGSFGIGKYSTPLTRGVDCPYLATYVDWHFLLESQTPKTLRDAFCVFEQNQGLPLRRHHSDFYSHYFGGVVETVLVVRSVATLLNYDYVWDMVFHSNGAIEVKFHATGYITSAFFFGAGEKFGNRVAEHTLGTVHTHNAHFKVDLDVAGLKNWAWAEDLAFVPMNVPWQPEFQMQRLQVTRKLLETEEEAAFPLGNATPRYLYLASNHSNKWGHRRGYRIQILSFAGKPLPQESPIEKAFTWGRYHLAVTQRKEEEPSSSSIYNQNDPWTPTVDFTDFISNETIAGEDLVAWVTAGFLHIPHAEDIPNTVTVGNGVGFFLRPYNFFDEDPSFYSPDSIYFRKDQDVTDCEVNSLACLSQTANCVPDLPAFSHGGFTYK

Row | IC50 [1] [nM] | IC50 [2] [nM] | SMILES
1 | 8.84 | 0.32 | CN1CCc2cc(OC/C(=C/F)CN)ccc2C1=O [Compound 8, 6-[(E)-2-(aminomethyl)-3-fluoro-allyloxy]-2-methyl-3,4-dihydroisoquinolin-1-one hydrochloride]
2 | 8.05 | 0.61 | CN1CCc2cc(OC/C(=C\F)CN)ccc2C1=O [Compound 9, 6-[(Z)-2-(aminomethyl)-3-fluoro-allyloxy]-2-methyl-3,4-dihydroisoquinolin-1-one hydrochloride]
3 | 9.54 | – | NC/C(=C\F)COc1ccc2c(c1)CCN(CC1CCOCC1)C2=O [Compound 10, 6-[(E)-2-(aminomethyl)-3-fluoro-allyloxy]-2-(tetrahydropyranyl-4-methylene)-3,4-dihydroisoquinolin-1-one hydrochloride]
4 | 11.7 | 0.82 | NC/C(=C/F)COc1ccc2c(c1)CCN(CC1CCOCC1)C2=O [Compound 11, 6-[(Z)-2-(aminomethyl)-3-fluoro-allyloxy]-2-(tetrahydropyranyl-4-methylene)-3,4-dihydroisoquinolin-1-one hydrochloride]
5 | 8.03 | 0.11 | CCOC(=O)CN1CCc2cc(OC/C(=C\F)CN)ccc2C1=O [Compound 13, ethyl 2-[6-[(Z)-2-(aminomethyl)-3-fluoro-allyloxy]-1-oxo-3,4-dihydroisoquinolin-2-yl]acetate hydrochloride]
6 | – | 1.13 | NC/C(=C\F)COc1ccc2c(c1)CCN(Cc1ccon1)C2=O [Compound 42, 6-[(E)-2-(aminomethyl)-3-fluoro-allyloxy]-2-(isoxazol-3-yl-methyl)-3,4-dihydroisoquinolin-1-one hydrochloride]
7 | – | 0.71 | NC/C(=C/F)COc1ccc2c(c1)CCN(Cc1ccon1)C2=O [Compound 43, 6-[(Z)-2-(aminomethyl)-3-fluoro-allyloxy]-2-(isoxazol-3-yl-methyl)-3,4-dihydroisoquinolin-1-one hydrochloride]
8 | – | 1.91 | COC(=O)CCN1CCc2cc(OC/C(=C/F)CN)ccc2C1=O [Compound 56, methyl 3-[6-[(E)-2-(aminomethyl)-3-fluoro-allyloxy]-1-oxo-3,4-dihydroisoquinolin-2-yl]propionate hydrochloride]
9 | – | 1.27 | COC(=O)CCN1CCc2cc(OC/C(=C\F)CN)ccc2C1=O [Compound 57, methyl 3-[6-[(Z)-2-(aminomethyl)-3-fluoro-allyloxy]-1-oxo-3,4-dihydroisoquinolin-2-yl]propionate hydrochloride]
10 | – | 1.17 | COC(=O)CN1CCc2cc(OC/C(=C/F)CN)ccc2C1=O [Compound 58, methyl 2-[6-[(E)-2-(aminomethyl)-3-fluoro-allyloxy]-1-oxo-3,4-dihydroisoquinolin-2-yl]acetate hydrochloride]
11 | – | 1.3 | COC(=O)CN1CCc2cc(OC/C(=C\F)CN)ccc2C1=O [Compound 59, methyl 2-[6-[(Z)-2-(aminomethyl)-3-fluoro-allyloxy]-1-oxo-3,4-dihydroisoquinolin-2-yl]acetate hydrochloride]

The remaining lines, values behind:

Row | SMILES | IC50 [1] [nM] | IC50 [2] [nM]
12 | NC/C(=C\F)COc1ccc2c(c1)NC(=O)CC2 [Compound 1, 7-[(E)-2-(aminomethyl)-3-fluoro-allyloxy]-3,4-dihydro-1H-quinolin-2-one hydrochloride] | 10.1 | –
13 | NC/C(=C/F)COc1ccc2c(c1)NC(=O)CC2 [Compound 2, 7-[(Z)-2-(aminomethyl)-3-fluoro-allyloxy]-3,4-dihydro-1H-quinolin-2-one hydrochloride] | 11.6 | 1.01
14 | NC/C(=C\F)COc1ccc2c(c1)CCN(c1ccccc1)C2=O [Compound 5, 6-[(E)-2-(aminomethyl)-3-fluoro-allyloxy]-2-phenyl-3,4-dihydroisoquinolin-1-one hydrochloride] | 4.87 | 0.37
15 | NC/C(=C/F)COc1ccc2c(c1)CCN(c1ccccc1)C2=O [Compound 6, 6-[(Z)-2-(aminomethyl)-3-fluoro-allyloxy]-2-phenyl-3,4-dihydroisoquinolin-1-one hydrochloride] | – | 0.04
16 | NC/C(=C\F)COc1ccc2c(c1)CCN(c1ncccn1)C2=O [Compound 7, 6-[(E)-2-(aminomethyl)-3-fluoro-allyloxy]-2-(pyrimidin-2-yl)-3,4-dihydroisoquinolin-1-one hydrochloride] | 8.98 | 0.09
17 | NC/C(=C\F)COc1ccc2c(c1)CCN(C1CCOCC1)C2=O [Compound 16, 6-[(E)-2-(aminomethyl)-3-fluoro-allyloxy]-2-(tetrahydropyran-4-yl)-3,4-dihydroisoquinolin-1-one hydrochloride] | 6.01 | 0.22
18 | NC/C(=C/F)COc1ccc2c(c1)CCN(C1CCOCC1)C2=O [Compound 17, 6-[(Z)-2-(aminomethyl)-3-fluoro-allyloxy]-2-(tetrahydropyran-4-yl)-3,4-dihydroisoquinolin-1-one hydrochloride] | 5.03 | 0.58
19 | NC/C(=C/F)COc1ccc2c(c1)CCN(CCOCc1ccccc1)C2=O [Compound 21, 6-[(Z)-2-(aminomethyl)-3-fluoro-allyloxy]-2-(2-benzyloxyethyl)-3,4-dihydro isoquinolin-1-one hydrochloride] | – | 0.91
20 | NC/C(=C\F)COc1ccc2c(c1)CCN(c1ccccn1)C2=O [Compound 28, 6-[(E)-2-(aminomethyl)-3-fluoro-allyloxy]-2-(2-pyridyl)-3,4-dihydroisoquinolin-1-one hydrochloride] | – | 1.53
21 | NC/C(=C\F)COc1ccc2c(c1)CCNS2(=O)=O [Compound 32, (E)-2-[(1,1-dioxo-3,4-dihydro-2H-benzo[e][1,2]thiazin-6-yl)oxymethyl]-3-fluoro-prop-2-enyl-1-amine hydrochloride] | 6.22 | –
22 | NC/C(=C\F)COc1ccc2c(c1)CCN(c1ccccc1F)C2=O [Compound 34, 6-[(E)-2-(aminomethyl)-3-fluoro-allyloxy]-2-(2-fluorophenyl)-3,4-dihydroisoquinolin-1-one hydrochloride] | – | 1.16
23 | NC/C(=C/F)COc1ccc2c(c1)CCN(c1ccccc1F)C2=O [Compound 35, 6-[(Z)-2-(aminomethyl)-3-fluoro-allyloxy]-2-(2-fluorophenyl)-3,4-dihydroisoquinolin-1-one hydrochloride] | – | 0.71
24 | N#Cc1ccc(N2CCc3cc(OC/C(=C/F)CN)ccc3C2=O)cc1 [Compound 38, 4-[6-[(E)-2-(aminomethyl)-3-fluoro-allyloxy]-1-oxo-3,4-dihydroisoquinolin-2-yl]benzonitrile hydrochloride] | – | 0.68
25 | N#Cc1ccc(N2CCc3cc(OC/C(=C\F)CN)ccc3C2=O)cc1 [Compound 39, 4-[6-[(Z)-2-(aminomethyl)-3-fluoro-allyloxy]-1-oxo-3,4-dihydroisoquinolin-2-yl]benzonitrile hydrochloride] | – | 0.53
26 | NC/C(=C\F)COc1ccc2c(c1)CCN(c1nccs1)C2=O [Compound 40, 6-[(E)-2-(aminomethyl)-3-fluoro-allyloxy]-2-thiazol-2-yl-3,4-dihydroisoquinolin-1-one hydrochloride] | – | 1
27 | NC/C(=C/F)COc1ccc2c(c1)CCN(c1nccs1)C2=O [Compound 41, 6-[(Z)-2-(aminomethyl)-3-fluoro-allyloxy]-2-thiazol-2-yl-3,4-dihydroisoquinolin-1-one hydrochloride] | – | 0.63
28 | NC/C(=C/F)COc1ccc2c(c1)CCN(c1ccccc1)C2 [Compound 53, (Z)-3-fluoro-2-[(2-phenyl-3,4-dihydro-1H-isoquinolin-6-yl)oxymethyl]prop-2-enyl-1-amine hydrochloride] | – | 1.04
29 | COc1ncc(N2CCc3cc(OC/C(=C\F)CN)ccc3C2=O)cn1 [Compound 55, 6-[(Z)-2-[(aminomethyl)-3-fluoro-allyloxy]-2-(2-methoxypyrimidin-5-yl)-3,4-dihydroisoquinolin-1-one hydrochloride] | – | 0.82

From US11396495B2, “Amine compound for inhibiting SSAO/VAP-1 and use thereof” (SUNSHINE LAKE PHARMA CO., LTD., priority 2017, dated 2022)
